Test results reported in patent US4224333A, “Antihypertensive 2H-indol-2-ones” (Roussel Uclaf, priority 1978, dated 1980).
Counter-ions that a name gives are not always drawn.

How the values were obtained:
[1] = Acute toxicity (LD50) in mice, intraperitoneal; details: mouse, in vivo, ip, suspension in carboxymethyl cellulose, observed one week
Experimental: The acute toxicity of the products was determined on groups of 10 mice weighing between 18 and 22 g and the products were intraperitoneally administered in a suspension in carboxymethyl cellulose.

[2] = tested on: spontaneous hypertendus male rats of the Okamto strain; experiment: Antihypertensive activity in spontaneously hypertensive rats, oral (tail arterial pressure); type: in vivo, rat; details: 50 mg/kg oral, hydrochloride form; for % Variation of arterial pressure 1 hour after administration: 1 h on first day; for % Variation of arterial pressure 4 hours after administration: 4 h on first day; for % Variation of arterial pressure, 10th day: 24 h after last administration
Experimental: The arterial pressure was measured before and after the said administration on the rat's tail with a pneumatic collar connected to an electronic translator of pressure and the results of Table II compare the initial arterial pressure with the arterial pressure 1,4 hours of the first day and 24 hours after the last administration.

[3] = tested on: male rats of the Sprague Dawley S.P.F. strain; experiment: Hypotensive activity (carotid arterial pressure) in anesthetized rats, intravenous; type: in vivo, rat; details: 1 mg/kg i.v., hydrochloride form
Experimental: The hypotensive activity was determined on groups of male rats of the Sprague Dawley S.P.F. strain weighing about 300 g which had been anesthesized with an intraveinous administration of 50 mg/kg of nembutal. The test products in their hydrochloride form were administered intraveinously in the jugular vein and the carotidiene arterial pressure was measured before and after the said administration. The variations between the initial arterial pressure and the pressure after the administration was determined as well as the time of duration of the activity and the results are reported in Table I.

[4] = test was for 3 days administration

O=C1Nc2ccccc2C1C1CCN(C[C@H](O)[C@H]2COc3ccccc3O2)CC1 (relative stereo) [Example 2, (dl) erythro 1,3-dihydro-3-{1-[2-(2,3-dihydro-1,4-benzodioxin-2-yl)-2-hydroxyethyl]-piperidin-4-yl}-2H-indol-2-one hydrochloride]
LD50 at 168 h [1]: ~125 mg/kg | % Variation of arterial pressure 1 hour after administration ([2]; 9 days administration): -23% | % Variation of arterial pressure 4 hours after administration ([2]; 9 days administration): -22% | % Variation of arterial pressure, 10th day ([2]; 9 days administration): -9% | % change in arterial pressure ([3]; at 5 min): -30% | % change in arterial pressure ([3]; at 60 min): -20%

O=C1Nc2ccccc2C1C1CCN(C[C@H](O)[C@@H]2COc3ccccc3O2)CC1 (relative stereo) [Example 3, (dl) threo 1,3-dihydro-3-{1-[2-(2,3-dihydro-1,4-benzodioxin-2-yl)-2-hydroxyethyl]-piperidin-4-yl}-2H-indol-2-one hydrochloride]
LD50 at 168 h [1]: ~125 mg/kg | % change in arterial pressure ([3]; at 1 min): -20% | % change in arterial pressure ([3]; at 15 min): -10%

CN1C(=O)C(C2CCN(C[C@H](O)[C@H]3COc4ccccc4O3)CC2)c2ccccc21 (relative stereo) [Example 4, (dl) erythro 1,3-dihydro-3-{1-[2-(2,3-dihydro-1,4-benzodioxin-2-yl)-2-hydroxyethyl]-piperidin-4-yl}-1-methyl-2H-indol-2-one hydrochloride]
LD50 at 168 h [1]: ~200 mg/kg | % Variation of arterial pressure 1 hour after administration [2, 4]: -23% | % Variation of arterial pressure 4 hours after administration [2, 4]: -31% | % Variation of arterial pressure, 10th day [2, 4]: -16% | % change in arterial pressure ([3]; at 1 min): -28% | % change in arterial pressure ([3]; at 5 min): -23% | % change in arterial pressure ([3]; at 10 min): -26% | % change in arterial pressure ([3]; at 30 min): -24%

Cl.O=C1Nc2ccccc2C1C1CCN(CC(O)C2COc3ccccc3O2)CC1 (centres unmarked) [Example 1, 3-{1-[2-(2,3-dihydro-1,4-benzodioxin-2-yl)-2-hydroxyethyl]-piperidin-4-yl}-1,3-dihydro-2H-indol-2-one hydrochloride]
LD50 at 168 h [1]: ~150 mg/kg | % Variation of arterial pressure 1 hour after administration ([2]; 9 days administration): -29% | % Variation of arterial pressure 4 hours after administration ([2]; 9 days administration): -27% | % Variation of arterial pressure, 10th day ([2]; 9 days administration): -8% | % change in arterial pressure ([3]; at 1 min): -20% | % change in arterial pressure ([3]; at 45 min): -10%
